Measurements: US20260219274A1, “POLYOL SWEETNERS AND CARDIOVASCULAR AND THROMBOTIC EVENT RISK” (THE CLEVELAND CLINIC FOUNDATION, priority 2023, published 2026)

What was measured:
clinical = conditions: human, in vivo
Experimental: (§1) This single center trial was approved by the Cleveland Clinic Institutional Review Board (clinicaltrials.gov identifier NCT04731363). Following subject consent (nonsmokers without CVD, hypertension, or diabetes), blood was drawn after overnight fast and 30 min following consumption of water containing 30 g of […] glucose (n=10, 30.1±11 years of age, 40% male), or erythritol (n=10, 30.5±8 years of age, 50% male), a quantity commonly found in erythritol-sweetened foods and the daily intake of some subjects based on 2013-2014 National Health and Nutrition Examination Survey (NHANES) data and FDA filings.(4,5).
(§2) Following erythritol consumption, postprandial circulating erythritol levels (assessed using stable-isotope-dilution liquid-chromatography tandem mass spectrometry (LC/MS/MS)3) were >1000-fold increased compared to baseline levels (median[inter quartile range], 6480[5930-7300]μM versus 3.75[3.35-3.87]μM, P<0.0001). In contrast, circulating erythritol levels remained similar before versus after glucose consumption (3.0[2.6-4.0]μM versus 2.9[2.7-3.8]μM, P=0.87; glucose levels before versus after 86.5(81.8-93.0) versus 127.0(122.3-132.3), P=0.002). […] In contrast, glucose consumption had no effect on platelet aggregation.

[1] = tested on: platelets of healthy volunteers; experiment: Erythritol or glucose ingestion: platelet aggregation and granule release; assay type: in vivo, human
Experimental: as §1, §2

[2] = tested on: patients undergoing elective diagnostic coronary angiography (European cohort); experiment: European validation cohort: LC/MS/MS serum erythritol vs 3-year MACE; assay type: in vivo, human
Source text: In a third clinical study (the European Cohort, n=833), serum erythritol levels were quantified by stable isotope dilution LC/MS/MS in samples from sequential patients undergoing elective diagnostic coronary angiography due to (suspected) chronic coronary syndromes enrolled in the observational LipidCardio study between 2016-2018 at the Charité University Hospital, Campus Benjamin Franklin (registered under German Clinical Trial Register (drks.de); identifier: DRKS00020915) with a follow-up for 3 years^49. As a quaternary referral center, Charité University Hospital is centrally located in Europe, and subjects enrolled in the LipidCardio study have large geographic catchment, with residences throughout Europe. eGFR was calculated via CKD-MDRD equation^48. For the European validation cohort, there was a total of 833 samples available with MACE outcome data. All samples were used for the erythritol LC/MS/MS measurement.
Stable-isotope-dilution LC/MS/MS was used for quantification of erythritol, threitol, and 1,5-AHG in human and mouse plasma. Ice cold methanol (800 μL) and internal standards (D6-erythitol and ^13C6-1,5-AHG) were added to the plasma samples (20 μL), followed by vortexing and centrifuging (21,000×g; 4° C. for 15 min). The clear supernatant (800 μL) was transferred into a clean, labeled glass tubes (Borosilicate glass 12×75 mm) and dried in a speed vacuum concentrator (Speed vac plus, SC210, Thermo Sevant). The dry residue was reconstituted in acetic anhydride (100 μL) and 4-Dimethylaminopyridine (DMAP) in pyridine (100 μL; 1 mg/mL), sealed with safety caps, vortexed and heated (45 min at 80° C.) followed with drying under nitrogen. Dried residues were dissolved in HCl in water (0.1 M; 0.5 mL) and extracted with ethyl acetate (2 mL). Ethyl acetate layer was transferred into a clean glass tubes (Borosilicate glass 12×75 mm) and dried under nitrogen. The dry residue was reconstituted in ammonium formate in a mixture of methanol:water (100 μL; 50:50 v/v with 10 mM ammonium formate), tubes were vortexed and liquid was transferred to glass vials with micro-insets and caped. LC/MS/MS analysis was performed on a chromatographic system consisting of two Shimadzu LC-30 AD pumps (Nexera X2), a CTO 20AC oven operating at 30° C., and a SIL-30 AC-MP autosampler in tandem with a triple quadruple mass spectrometer (8050 series, Shimadzu Scientific Instruments, Inc., Columbia, MD, USA). For chromatographic separation, a Kinetex C18 column (50 mm×2.1 mm; […]) (Cat #00B-4462-AN, Phenomenex, Torrance, CA) was used. […] Electrospray ionization in the positive mode was used with multiple reaction monitoring (MRM) for detection of endogenous and stable isotope labeled internal standards. The following transitions were used: m/z 308.0 [M+4xC2OH2+NH4]^+→231.0 for threitol and erythritol, m/z 314.0 [M+4xC2OH2+NH4]^+→237.0 for D6-erythritol; m/z 360.1 [M+4xC2OH2+NH4]^+→273.3 for 1,5AHG; […] [M+4xC2OH2+NH4]^+→279.3 for ^13C6-1,5-AHG; The following ion source parameters were applied: nebulizing gas flow, 3 l/min; heating gas flow, 10 L/min; interface temperature, 300° C.; desolvation line temperature, 250° C.; heat block temperature, 400° C.; and drying gas flow, 10 L/min. Limit of detection (LOD) and limit of quantification (LOQ) were as follow: threitol:0.048 and 0.160 μM; erythritol: 0.026 and 0.089 μM; 1,5-AHG: […]; respectively. Three quality control samples were run with each batch of samples and inter-batch variations expressed as coefficient of variation (CV) were less than 7% for all analytes monitored. Data were collected and analyzed by LabSolution 5.91 software (Shimadzu).
Continuous variables were summarized as median (25th and 75th percentiles), and categorical variables are presented as %. For group comparisons of patient characteristics, Kruskal-Wallis test was performed for numerical data and Chi-Square test for categorical data. […]

In the case of `OC[C@@H](O)[C@@H](O)CO` [erythritol], the concentration at 30 min (clinical; both sexes) was 6480 µM, the “baseline circulating erythritol levels, median[inter quartile range]” value (clinical; both) was 3.75[3.35-3.87] μM and the circulating erythritol levels (clinical; both) was 3.0[2.6-4.0] μM. For the same compound, the circulating erythritol levels (clinical; both, 30 min) was 2.9[2.7-3.8] μM, the “increase of postprandial circulating erythritol vs baseline” value (clinical; both, 30 min) was over 1000 fold and the “platelet aggregation responses to ADP and TRAP6 after ingestion” value ([1]; 30 min after 30 g vs baseline) was “striking increase”. The “stimulus-dependent release of alpha granule marker CXCL4” value ([1]; TRAP6 (7.5 μM), ADP (2.0 μM), after ingestion) was “markedly enhanced”, the “stimulus-dependent release of dense granule marker serotonin” value ([1]; TRAP6 and ADP, after ingestion) was “markedly enhanced” and the “HR with 95% CI” value ([2]; 3-year MACE per μM of erythritol, adjusted Cox model) was 1.16 (1.05-1.30). For the same compound, the “Adjusted HR, 3-year MACE” value ([2]; erythritol Q2 vs Q1, female) was 1.82, the “Unadjusted HR, 3-year MACE” value ([2]; erythritol Q2 vs Q1, female) was 1.64 and the “Adjusted HR, 3-year MACE” value ([2]; erythritol Q2 vs Q1, male) was 0.98. The “Unadjusted HR, 3-year MACE” value ([2]; erythritol Q2 vs Q1, male) was 1.22, the “Adjusted HR, 3-year MACE” value ([2]; erythritol Q3 vs Q1, female) was 1.66 and the “Unadjusted HR, 3-year MACE” value ([2]; erythritol Q3 vs Q1, female) was 1.67. The “Adjusted HR, 3-year MACE” value ([2]; erythritol Q3 vs Q1, male) was 0.93, the “Unadjusted HR, 3-year MACE” value ([2]; erythritol Q3 vs Q1, male) was 2.09 and the “Adjusted HR, 3-year MACE” value ([2]; erythritol Q4 vs Q1, female) was 2.27 (0.75-6.82). For the same compound, the “Unadjusted HR, 3-year MACE” value ([2]; erythritol Q4 vs Q1, female) was 3.77 (1.61-8.80), the “Adjusted HR, 3-year MACE” value ([2]; erythritol Q4 vs Q1, male) was 2.37 and the “Unadjusted HR, 3-year MACE” value ([2]; erythritol Q4 vs Q1, male) was 4.92. The “increase in the adjusted HR for MACE” value ([2]; per 1 μM increase in erythritol levels) was 16%, the “Q4 vs. Q1 HR (95% CI), 3-year MACE” value ([2]; subgroup Age <70) was 3.08 (1.22-7.78) and the “Q4 vs. Q1 HR (95% CI), 3-year MACE” value ([2]; subgroup Age ≥70) was 3.49 (2.12-5.73). The “Q4 vs. Q1 HR (95% CI), 3-year MACE” value ([2]; subgroup CAD) was 4.22 (2.58-6.89), the “Q4 vs. Q1 HR (95% CI), 3-year MACE” value ([2]; subgroup Diabetes) was 5.16 (2.4-11.1) and the “Q4 vs. Q1 HR (95% CI), 3-year MACE” value ([2]; subgroup Female) was 3.77 (1.61-8.80). The “Q4 vs. Q1 HR (95% CI), 3-year MACE” value ([2]; subgroup GFR <60 ml/min/1.73 m^3) was 5.25 (2.82-9.76), the “Q4 vs. Q1 HR (95% CI), 3-year MACE” value ([2]; subgroup GFR ≥60 ml/min/1.73 m^3) was 2.38 (1.32-4.31) and the “Q4 vs. Q1 HR (95% CI), 3-year MACE” value ([2]; subgroup HDL-c <40 mg/dL) was 4.15 (1.91-8.99). The “Q4 vs. Q1 HR (95% CI), 3-year MACE” value ([2]; subgroup HDL-c ≥40 mg/dL) was 4.28 (2.4-7.62), the “Q4 vs. Q1 HR (95% CI), 3-year MACE” value ([2]; subgroup HbA1C <5.7%) was 2.13 (1.06-4.25) and the “Q4 vs. Q1 HR (95% CI), 3-year MACE” value ([2]; subgroup HbA1C ≥5.7%) was 5.39 (2.96-9.81). The “Q4 vs. Q1 HR (95% CI), 3-year MACE” value ([2]; subgroup Hypertension) was 6.08 (1.31-28.1), the “Q4 vs. Q1 HR (95% CI), 3-year MACE” value ([2]; subgroup LDL-c <100 mg/dL) was 3.92 (2.25-6.83) and the “Q4 vs. Q1 HR (95% CI), 3-year MACE” value ([2]; subgroup LDL-c ≥100 mg/dL) was 4.27 (1.94-9.37). For the same compound, the “Q4 vs. Q1 HR (95% CI), 3-year MACE” value ([2]; subgroup Male) was 4.92 (2.89-8.35), the “Q4 vs. Q1 HR (95% CI), 3-year MACE” value ([2]; subgroup No CAD) was 5.97 (1.75-20.4) and the “Q4 vs. Q1 HR (95% CI), 3-year MACE” value ([2]; subgroup No Diabetes) was 2.96 (1.72-5.10). The “Q4 vs. Q1 HR (95% CI), 3-year MACE” value ([2]; subgroup No Hypertension) was 4.97 (3.05-8.09), the “Q4 vs. Q1 HR (95% CI), 3-year MACE” value ([2]; subgroup No Prior MI) was 3.48 (1.77-6.87) and the “Q4 vs. Q1 HR (95% CI), 3-year MACE” value ([2]; subgroup Prior MI) was 4.69 (2.54-8.66). For the same compound, the “Q4 vs. Q1 HR (95% CI), 3-year MACE” value ([2]; subgroup Triglycerides <150) was 3.71 (1.93-7.14) and the “Q4 vs. Q1 HR (95% CI), 3-year MACE” value ([2]; subgroup Triglycerides ≥150) was 3.85 (1.50-9.87).
